This is an account of results in article PMC10791743, “Selective CK1α degraders exert antiproliferative activity against a broad range of human cancer cell lines” (Nature Communications, 2024).

Molecules are shown by their SMILES. Where “and” joins values, the source holds several entries; their conditions need not be identical. Equal entries are not always repeated.

Data set [1] concerns MDR1 (P-gp). Briefly: MDCKII-MDR1 cell-based permeability assay. The format is in vitro ADME. The conditions noted are these: dog, MDCK-MDR1, pH 7.4. On the procedure:
(§1) page 30: ADME Methods Aqueous solubility assay: Solubility assays were conducted using a Biomek FX lab automation workstation (Beckman Coulter, Inc., Fullerton, CA) and μSOL Evolution software (pION Inc., Woburn, MA). In a 96-well microplate (Cat. No: 3363, Corning Incorporated, Salt Lake, UT), 10 μL of a 10 mM test compound stock in DMSO was added to 190 μL 1-propanol (Thermo Scientific, spectroscopy, Cat. No: 434360010, Fair Lawn, NJ) to create a reference stock plate. From this reference stock plate, 5 μL solutions were mixed with 70 μL 1-propanol and 75 μL Dulbecco's Phosphate Buffered Saline (DPBS, 1X, GibcoTM, Cat. No: 14190-144, Thermo Fisher Scientifics, Waltham, MA) to generate the reference plate (high sensitivity UV plate, Cat. No: 110286, pION Inc., Woburn, MA). In a 96-well storage plate (Cat. No: 201276-100, Agilent, Santa Clara, CA), 6 μL of a 10 mM test compound stock was added to 600 μL buffer, mixed, sealed, and incubated at room temperature for 18 hours. Following incubation, the suspension was filtered through a 96-well filter plate (PVDF, 0.2 μM, Cat. No: 110037, pION Inc., Woburn, MA). The filtrate (75 μL) was combined with 75 μL 1-propanol to create the sample plate. UV spectra of the reference and sample plates were then read, and calculations based on the area under the curve (AUC) of the UV spectra were performed using μSOL Evolution software. All compounds were tested in triplicate wells. MDCKII-MDR1 cell-based permeability assay: High-throughput […]1 permeability assay was performed in the Transwell® 0.4 μm polycarbonate membrane 96-well system with modified methods1,2, […]1 cells were maintained at 37 °C in a humidified incubator with an atmosphere of 5% CO2. The cells were cultured in 75 cm2 flasks with Eagle's Minimum Essential Medium (EMEM) containing 10% fetal bovine serum (FBS), 1% non-essential amino acids (NEAA), 100 units/mL of penicillin, and 100 μg/mL of streptomycin. The […]1 cells were seeded onto inserts at a density of 1×10^4 cells/insert separately. The medium in the wells was changed every other day, and the trans epithelial electrical resistance (TEER) value was measured page 31: using a REMS Autosampler (World Precision Instruments, Sarasota, […]1 cells were grown for 5 days to reach a consistent confluency level monitored by epithelial voltohmmeter to confirm the intactness of the confluent polarized monolayer. For transport experiments, each cultured monolayer on the 96-well plate was washed twice with a transport buffer (HBSS/25 mM […] The cell-based permeability assay was initiated by the addition of each compound solution (10 μmol/L) into inserts (apical side, A) or receivers (basolateral side, B). After incubated […] (if basal to apical permeability), and concentrations were assessed by UPLC/MS (Waters; Milford, MA). All compounds were tested in triplicates. The A→B (or B→A) apparent permeability coefficients (Papp) of each compound were calculated using the equation (3): […], where dQ/dt equals the flux of a drug across the monolayer, the parameters of A equals the surface area of total insert well, and C0 is the initial concentration of substrate in the donor compartment. The efflux ratio was determined by dividing the Papp in the B-A direction by the Papp in the A-B direction. […] NADPH regenerating agent solutions A and B (Corning GentestTM, Cat. No: 451220) were purchased from Discovery Labware (Woburn, MA). Mouse liver microsomes (CD-1, pooled, GibcoTM, Cat. No: MSMCPL) were obtained from Thermo Fisher Scientific (Fredrick, MD). Pooled human liver microsomes (mixed gender, Cat. No: E0630) were purchased from XenoTech (Lenexa, KS). Stock solutions of test compounds were prepared at 10 mM in DMSO. Sample preparation for microsomal stability was modified from Di's publications3,4. […] and 4 hours) by Labcyte Echo 650 acoustic dispenser (Beckman Coulter Life Sciences, Indianapolis, IN). All compounds were tested in triplicate per time point. […]

Data set [2] has as its system MDCKII-MDR1 cells. Briefly: MDCKII-MDR1 cell-based permeability assay. Format: in vitro ADME. The protocol: as §1

Regarding `O=C1CCC(N2Cc3cc(Nc4noc5ccccc45)ccc3C2=O)C(=O)N1` (stereo not drawn) [SJ3149], the Papp A→B at 1 h, 10 μmol/L in data set [1] (apical to basolateral, read-out: MDCK-MDR1 AB) came out at 27.7 ×10⁻⁶ cm/s. Further, the Papp B→A at 1 h, 10 μmol/L in data set [1] (basolateral to apical, read-out: MDCK-MDR1 BA) was determined as 36.5 ×10⁻⁶ cm/s.
With `O=C1CCC(N2Cc3cc(Nc4noc5ccccc45)ccc3C2=O)C(=O)N1` (stereo not drawn) [SJ001043149-1], in data set [2] (A2B), the “Papp (*10^6 cm/s), A2B, single replicate” value was 35.9761 *10^6 cm/s and 11.2244 *10^6 cm/s and 35.8135 *10^6 cm/s; the “Papp (nm/s), A2B, single replicate” value was 359.761 nm/s and 112.244 nm/s and 358.135 nm/s. The “AVG Papp A 2 B” value in data set [2] (A2B, average of 3) was 276.713 nm/s. In data set [2] (B2A), the “Papp (*10^6 cm/s), B2A, single replicate” value was 44.7992 *10^6 cm/s and 31.6544 *10^6 cm/s and 32.9997 *10^6 cm/s; the “Papp (nm/s), B2A, single replicate” value was 447.992 nm/s and 316.544 nm/s and 329.997 nm/s. Further, the “Efflux Ratio” value in data set [2] (B2A / A2B) is listed as 1.318. For the same compound, in data set [2] (B2A, average of 3), the “AVG Papp B 2 A” value was 364.845 nm/s.
